Laboratory results reported in patent publication US6545002B1 (University of Virginia Patent Foundation, priority 1999, dated 2003).
Where two headings read alike, the source gives them in different places.

Columns and labels:
rat A1 receptors (rA1) = target: T1, rat A1 receptors (rA1) (Rattus norvegicus, UniProt P25099); assay: Displacement of [3H]R-PIA binding in rat brain (cerebral cortical) membranes; conditions: for Ki: read-out: rA1 Ki or IC50
T1 construct: to A1 receptors from rat cerebral cortical membranes; from tissue; host or cells: rat cerebral cortical (brain) membranes
T1 sequence (P25099 1-326): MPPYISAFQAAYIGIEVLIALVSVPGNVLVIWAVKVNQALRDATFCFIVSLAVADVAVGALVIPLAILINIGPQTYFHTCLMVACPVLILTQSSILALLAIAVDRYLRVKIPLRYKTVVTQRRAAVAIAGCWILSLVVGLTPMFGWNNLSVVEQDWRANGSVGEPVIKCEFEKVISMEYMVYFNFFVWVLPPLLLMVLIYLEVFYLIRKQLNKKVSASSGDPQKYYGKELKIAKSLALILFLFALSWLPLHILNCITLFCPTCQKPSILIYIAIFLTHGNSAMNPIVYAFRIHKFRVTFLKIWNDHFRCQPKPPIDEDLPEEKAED
Description: (§1) Bruns, R. F. et al., Naunyn-Schmiedeberg's Arch. […] Binding of [^3H]R-N^6-phenylisopropyladenosine. Schwabe, U. et al., Naunyn-Schmiedeberg's Arch. […] (Dupont NEN, Boston, Mass.) to A2A receptors from rat striatal membranes was performed as described. […] All non-radioactive compounds were initially dissolved in DMSO, and diluted with buffer to the final concentration, where the amount of DMSO never exceeded 2%. Incubations were terminated by rapid filtration over Whatman GF/B filters, using a Brandell cell harvester (Brandell, Gaithersburg, Md.). The tubes were rinsed three times with 3 mL buffer each.
(§2) At least six different concentrations of competitor, spanning 3 orders of magnitude adjusted appropriately for the IC50 of each compound, were used. IC50 values, calculated with the nonlinear regression method implemented in (Graph-Pad Prism, San Diego, Calif.), were converted to apparent Ki values as described. Linden, J., J. Cycl. Nucl.

rat A2A receptors (rA2A) = target: T2, rat A2A receptors (rA2A) (Rattus norvegicus, UniProt P30543); assay: Displacement of [3H]CGS 21680 binding in rat striatal membranes; conditions: for Ki: read-out: rA2A Ki or IC50
T2 construct: to A2A receptors from rat striatal membranes was performed as described; from tissue; host or cells: rat striatal membranes
Description: as §1, §2

[1] = target: T3, human A2B receptors (hA2B) (Homo sapiens, UniProt P29275); assay: Radioligand binding ([125I]ABOPX / [3H]ZM241385) at human A2B receptors expressed in HEK-293 cells; conditions: for Ki: read-out: hA2B Ki or IC50
T3 construct: expressed in transfected cells; host or cells: HEK-293 (HEK-A2B, G418-selected)
T3 sequence (P29275 1-332): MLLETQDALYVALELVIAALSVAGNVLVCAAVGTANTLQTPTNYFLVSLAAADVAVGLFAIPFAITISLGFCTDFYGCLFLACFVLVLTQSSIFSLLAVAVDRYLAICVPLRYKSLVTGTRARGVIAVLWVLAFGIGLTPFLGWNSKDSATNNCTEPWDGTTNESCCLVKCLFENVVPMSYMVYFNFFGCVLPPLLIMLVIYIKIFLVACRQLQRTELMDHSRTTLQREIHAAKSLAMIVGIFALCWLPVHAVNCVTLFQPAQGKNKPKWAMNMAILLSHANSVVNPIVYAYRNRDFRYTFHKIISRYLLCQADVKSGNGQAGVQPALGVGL

human A3 receptors (hA3) = target: T4, human A3 receptors (hA3) (Homo sapiens, UniProt P0DMS8); assay: Displacement of [125I]ABA binding at human A3 receptors expressed in HEK-293 cells; conditions: read-out: hA3 Ki or IC50
T4 construct: expressed in transfected cells; host or cells: HEK-293
T4 sequence (P0DMS8 1-318): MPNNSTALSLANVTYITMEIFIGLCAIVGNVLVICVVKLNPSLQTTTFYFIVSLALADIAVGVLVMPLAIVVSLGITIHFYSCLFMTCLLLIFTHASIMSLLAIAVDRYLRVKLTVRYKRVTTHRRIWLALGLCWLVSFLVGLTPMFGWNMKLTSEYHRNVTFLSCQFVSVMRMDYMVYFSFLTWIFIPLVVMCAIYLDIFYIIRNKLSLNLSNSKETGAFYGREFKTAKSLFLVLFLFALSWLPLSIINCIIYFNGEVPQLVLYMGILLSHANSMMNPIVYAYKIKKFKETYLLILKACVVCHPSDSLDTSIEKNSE

[2] = target: T5, recombinant human A1 receptors (hA1) (Homo sapiens, UniProt P30542); assay: Radioligand binding ([3H]CPX) at recombinant human A1 receptors in HEK-293 cells
T5 sequence (P30542 1-326): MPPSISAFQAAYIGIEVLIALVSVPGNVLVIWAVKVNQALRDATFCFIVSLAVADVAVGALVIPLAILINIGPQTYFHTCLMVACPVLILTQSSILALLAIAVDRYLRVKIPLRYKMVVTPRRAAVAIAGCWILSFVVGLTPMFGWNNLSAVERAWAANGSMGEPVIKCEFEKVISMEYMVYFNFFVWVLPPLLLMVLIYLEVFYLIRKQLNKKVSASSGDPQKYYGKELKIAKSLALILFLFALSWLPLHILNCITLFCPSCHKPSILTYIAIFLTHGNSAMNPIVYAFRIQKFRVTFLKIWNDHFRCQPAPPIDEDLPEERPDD
Description: (§3) The potency of the xanthine derivatives at human A2B receptors was evaluated using two binding assays. […] In order to determine selectivity, the xanthines were evaluated using standard binding assays at A1, A2A, and A3 receptors.

[3] = target: recombinant human A2A receptors (hA2A) (Homo sapiens, UniProt P29274); assay: Radioligand binding (125I-ZM241385) at recombinant human A2A receptors in HEK-293 cells
Description: as §3

[4] = Table 1, [3H]R-PIA, rat brain membranes
[5] = Table 1, [3H]CGS 21680, rat striatal membranes
[6] = read-out: hA1 Ki, values marked (h), Table 1, recombinant human A1, HEK 293

T2 sequence (P30543 whole entry): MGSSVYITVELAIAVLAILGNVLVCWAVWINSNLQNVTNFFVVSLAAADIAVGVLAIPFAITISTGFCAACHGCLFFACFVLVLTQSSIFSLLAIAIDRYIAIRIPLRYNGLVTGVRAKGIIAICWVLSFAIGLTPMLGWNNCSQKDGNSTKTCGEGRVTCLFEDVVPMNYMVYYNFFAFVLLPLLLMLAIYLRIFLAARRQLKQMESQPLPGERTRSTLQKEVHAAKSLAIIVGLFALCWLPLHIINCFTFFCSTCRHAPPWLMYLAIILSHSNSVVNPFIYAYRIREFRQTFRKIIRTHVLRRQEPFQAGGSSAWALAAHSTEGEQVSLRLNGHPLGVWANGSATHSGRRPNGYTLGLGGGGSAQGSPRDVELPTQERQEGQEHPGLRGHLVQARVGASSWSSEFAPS
recombinant human A2A receptors (hA2A), sequence (P29274 whole entry): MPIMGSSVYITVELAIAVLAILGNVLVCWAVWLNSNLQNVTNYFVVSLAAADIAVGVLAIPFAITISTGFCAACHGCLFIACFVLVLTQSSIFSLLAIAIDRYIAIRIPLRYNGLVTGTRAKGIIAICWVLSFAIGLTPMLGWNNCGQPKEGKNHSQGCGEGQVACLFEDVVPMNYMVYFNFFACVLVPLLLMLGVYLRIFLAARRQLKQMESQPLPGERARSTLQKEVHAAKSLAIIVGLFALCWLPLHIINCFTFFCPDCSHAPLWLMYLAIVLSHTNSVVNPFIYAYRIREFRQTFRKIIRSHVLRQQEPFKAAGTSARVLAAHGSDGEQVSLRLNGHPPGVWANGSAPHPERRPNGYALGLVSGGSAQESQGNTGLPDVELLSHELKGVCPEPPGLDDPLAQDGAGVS

Compound	melting point [°C]	Ki (rat A1 receptors (rA1); Table 2) [nM]	Ki (rat A2A receptors (rA2A); Table 2) [nM]	Ki ([1]; Table 2) [nM]	further results
CC(=O)c1ccccc1NC(=O)/C=C/c1ccc(-c2nc3c([nH]2)c(=O)n(Cc2ccccc2)c(=O)n3Cc2ccccc2)cc1 (hydrate or solvate) [Compound 37, 8-[4-(2-(2-Acetylphenyl)carbamoyl-trans-vinyl)phenyl]-1,3-dibenzylxanthine]	308 to 309	–	–	–	–
CCCn1c(=O)c2[nH]c(-c3ccc(OCC(=O)ON4C(=O)CCC4=O)cc3)nc2n(CCC)c1=O [Compound 4b]	–	–	–	–	Ki (rat A1 receptors (rA1); [4]): 153 nM; Ki (rat A2A receptors (rA2A); [5]): 127 nM; Ki ([1]; Table 1, [125I]ABOPX, HEK-293): 9.75 ± 4.8 nM; Ki (human A3 receptors (hA3); Table 1, [125I]ABA, HEK-293): 227 nM
O=C(O)COc1ccc(-c2nc3c([nH]2)c(=O)n(Cc2ccccc2)c(=O)n3Cc2ccccc2)cc1 [Compound 7, 8-[4-[(Carboxymethyl)oxy]phenyl]-1,3-dibenzyl-xanthine]	> 310	–	–	–	Ki (rat A1 receptors (rA1); [4]): 679 ± 190 nM; rA2A % displacement of specific binding (rat A2A receptors (rA2A); Table 1, at 100,000 nM): 25 ± 3%; Ki ([1]; Table 1, [125I]ABOPX, HEK-293): 1760 nM
CCCn1c(=O)c2[nH]c(-c3ccc(C=CC(=O)O)cc3)nc2n(CCC)c1=O [Compound 8]	–	–	–	–	Ki (rat A2A receptors (rA2A); [5]): 800 nM; Ki ([1]; Table 1, [125I]ABOPX, HEK-293): 60 ± 2 nM; Ki (human A3 receptors (hA3); Table 1, [125I]ABA, HEK-293): 30 ± 14 nM; Ki [2, 6]: 140 ± 3 nM; Ki ([3]; read-out: hA2A Ki, values marked (h), Table 1, recombinant human A2A, HEK 293): 190 ± 71 nM
O=C(O)C=Cc1ccc(-c2nc3c([nH]2)c(=O)n(CC2CCCCC2)c(=O)n3CC2CCCCC2)cc1 [Compound 9]	–	–	–	–	Ki (rat A1 receptors (rA1); [4]): 602 ± 24 nM; Ki ([1]; Table 1, [125I]ABOPX, HEK-293): 199 ± 52 nM; Ki (human A3 receptors (hA3); Table 1, [125I]ABA, HEK-293): 922 ± 399 nM; Ki [2, 6]: 4890 nM
O=C(O)/C=C/c1ccc(-c2nc3c([nH]2)c(=O)n(Cc2ccccc2)c(=O)n3Cc2ccccc2)cc1 [Compound 10, 8-(4-(2-Carboxy-trans-vinyl)phenyl)-1,3-dibenzyl-xanthine]	> 310	–	–	–	Ki (rat A1 receptors (rA1); [4]): 201 ± 23 nM; Ki (rat A2A receptors (rA2A); [5]): 4450 nM; Ki ([1]; Table 1, [125I]ABOPX, HEK-293): 469 ± 23 nM
CCCn1c(=O)c2[nH]c(-c3ccc(OCC(=O)N(CC(=O)OCC)CC(=O)OCC)cc3)nc2n(CCC)c1=O [Compound 17, 8-[4-[(N,N-bis(Ethoxycarbonylmethyl)carbamoylmethyl)oxy]-phenyl]-1,3-di-(n-propyl)xanthine]	225	26.8 ± 2.4	999 ± 144	43.4 ± 8.4	–
CCCn1c(=O)c2[nH]c(-c3ccc(OCC(=O)Nc4ccc(C(C)=O)cc4)cc3)nc2n(CCC)c1=O [Compound 20, 8-[4-[((4-Acetylphenyl)carbamoylmethyl)oxy]phenyl]-1,3-di-(n-propyl)xanthine]	–	37.6 ± 4	548 ± 183	1.39 ± 0.3	selectivity for human A2B versus rat A1 receptors [1]: 27 fold; Ki (human A3 receptors (hA3); Table 2): 230 ± 23 nM; Ki ([2]; read-out: hA1 Ki or IC50, Table 2): 157 ± 8 nM; Ki ([3]; read-out: hA2A Ki or IC50, Table 2): 112 ± 37 nM
CC(=O)c1ccccc1NC(=O)/C=C/c1ccc(-c2nc3c([nH]2)c(=O)n(CC2CCCCC2)c(=O)n3CC2CCCCC2)cc1 [Compound 36, 8-[4-(2-(2-Acetylphenyl)carbamoyl-trans-vinyl)phenyl]-1,3-di-(cyclohexylmethyl)xanthine]	305	–	–	–	–
CC(=O)c1ccccc1NC(=O)COc1ccc(-c2nc3c([nH]2)c(=O)n(Cc2ccccc2)c(=O)n3Cc2ccccc2)cc1 [Compound 38, 8-[4-[((2-Acetylphenyl)carbamoylmethyl)oxy]phenyl]-1,3-dibenzyl-xanthine]	284	–	–	–	–
CCn1c(=O)c2[nH]c(-c3ccc(OCC(=O)Nc4ccc(C)cc4)cc3)nc2n(CC)c1=O [Compound 39]	–	–	–	–	Ki (rat A1 receptors (rA1); Table 3): 34.9 ± 0.3 nM; Ki (rat A2A receptors (rA2A); Table 3): 71.1 ± 7.7 nM; Ki ([1]; Table 3): 1.78 ± 0.43 nM

More lines, main results first:

melting point [°C]	Ki (rat A1 receptors (rA1); Table 2) [nM]	Ki (rat A2A receptors (rA2A); Table 2) [nM]	Ki ([1]; Table 2) [nM]	Compound	further results
–	20 ± 3.8	76.3 ± 14	–	CCCn1c(=O)c2[nH]c(-c3ccc(OCC(N)=O)cc3)nc2n(CCC)c1=O [Compound 11]	more potent than the carboxylic acid 4a at A1 receptors (rat A1 receptors (rA1); relative to 4a): 3 fold; more potent than the carboxylic acid 4a at A2A receptors (rat A2A receptors (rA2A); relative to 4a): 29 fold; potency versus the carboxylic acid 4a at A2B receptors ([1]; relative to 4a): equipotent
269 to 270	120 ± 21	–	33.7 ± 17	CCCn1c(=O)c2[nH]c(-c3ccc(OCC(=O)NC(c4ccccc4)c4ccccc4)cc3)nc2n(CCC)c1=O [Compound 14, 8-[4-[(Diphenylmethylcarbamoylmethyl)oxy]phenyl]-1,3-di-(n-propyl)xanthine]	rA2A % displacement (rat A2A receptors (rA2A); Table 2, at (1000)): 20 ± 8%
215	218 ± 80	497 ± 250	5.42 ± 1.71	CCCn1c(=O)c2[nH]c(-c3ccc(OCC(=O)N(C)c4ccccc4)cc3)nc2n(CCC)c1=O [Compound 16, 8-[4-[(N-Methyl-N-phenylcarbamoylmethyl)oxy]phenyl]-1,3-di-(n-propyl)xanthine]	selectivity for human A2B versus rat A1 receptors [1]: 40 fold; selectivity for human A2B versus rat A2A receptors [1]: 92 fold; reduction of affinity by N-methylation ([1]; N-methyl anilide versus anilide, human A2B): 3.7 fold
> 310	10.2 ± 2.5	683 ± 167	7.75 ± 1.11	CCCn1c(=O)c2[nH]c(-c3ccc(OCC(=O)Nc4ccc(C(N)=O)cc4)cc3)nc2n(CCC)c1=O [Compound 22, 8-[4-[((4-Carbamoyl)phenylcarbamoylmethyl)oxy]phenyl]-1,3-di-(n-propyl)xanthine]	–
> 310	24.8 ± 1.8	98.1 ± 49.6	3.34 ± 0.51	CCCn1c(=O)c2[nH]c(-c3ccc(OCC(=O)Nc4ccc(C(=O)NC)cc4)cc3)nc2n(CCC)c1=O [Compound 23, 8-[4-[((4-Methylcarbamoyl)phenylcarbamoylmethyl)oxy]phenyl]-1,3-di-(n-propyl)xanthine]	–
> 310	145 ± 28	220 ± 79	16.1 ± 4.7	CCCn1c(=O)c2[nH]c(-c3ccc(OCC(=O)Nc4ccc(C(=O)O)cc4)cc3)nc2n(CCC)c1=O [Compound 24, 8-[4-[((4-Carboxy)phenylcarbamoylmethyl)oxy]phenyl]-1,3-di-(n-propyl)xanthine]	–
–	17.5 ± 5	126 ± 38	1.88 ± 0.76	CCCn1c(=O)c2[nH]c(-c3ccc(OCC(=O)Nc4ccc(C)cc4)cc3)nc2n(CCC)c1=O [Compound 25]	–
–	5.88 ± 1.06	63.3 ± 20.4	3.71 ± 0.76	CCCn1c(=O)c2[nH]c(-c3ccc(OCC(=O)Nc4ccc(O)cc4)cc3)nc2n(CCC)c1=O [Compound 26]	–
